Test results as given in article PMC4661883, “Cell-Penetrating Ability of Peptide Hormones: Key Role of Glycosaminoglycans Clustering” (International Journal of Molecular Sciences, 2015).

How the values were obtained:
[1] = previously shown; cited from earlier work
From the text: This could be related to the fact that arginine has a higher affinity for sulfated GAGs than lysine.

[2] = previously shown; cited from earlier work; remark: listed apart in the source
From the text: We recently reported that upon binding to sulfated GAGs, PACAP38 undergoes a random coil-to-α-helix conformational conversion. […] Thus, we evaluated if the lower efficacy of cellular uptake of representative peptides of the secretin/glucagon/GHRH superfamily and of calcitonin could not be ascribed to the incapacity of ...

CHO K1 cells = experiment: Cellular uptake of fluorescently labelled peptides by flow cytometry, CHO K1 cells; assay type: cell-based, Chinese hamster; settings: 1 µM fluorescently-labelled (FITC-Ahx N-terminal) peptide, 1 h at 37 °C, 1% FBS Ham's F12, heparin wash and trypsin, at least 3 experiments
Experimental: Chinese hamster ovary cells K1 (CHO K1; obtained from ATCC, Manassas, VA, USA) and xylosyltransferase deficient cells [18] (CHO pgs-A-745; obtained from ATCC) were maintained in Ham’s F12 medium supplemented with 10% foetal bovine serum (FBS), 2 mM L-glutamine and antibiotic (10,000 UI/mL penicillin, and 10,000 UI/mL streptomycin). Cells were maintained as a monolayer at 37 °C in a humidified atmosphere of 5% CO2 and 95% air and passaged by trypsinization when the cells reached 70%–80% confluence.

CHO pgs-A-745 cells = experiment: Cellular uptake of fluorescently labelled peptides by flow cytometry, GAGs-deficient CHO pgs-A-745 cells; assay type: cell-based, Chinese hamster; settings: 1 µM fluorescently labelled peptide, 1 h at 37 °C
Experimental: Figure 1 Cellular uptake of cationic peptide hormones and TAT peptide. […] Data represent the relative mean fluorescence intensity (± S.E.M.) of gated cells from at least 3 individual experiments and results are expressed as a percentage of the median fluorescence for 1 μM PACAP38 in CHO K1 cells. Cells were incubated for 1 h at 37 °C in 5% CO2 with fluorescently labelled peptides, washed twice in HBSS, treated with 100 μg/mL heparin for 5 min, detached by trypsin treatment, washed by centrifugation and resuspended in ice-cold sorting buffer before flow cytometry analysis.
Chinese hamster ovary cells K1 (CHO K1; obtained from ATCC, Manassas, VA, USA) and xylosyltransferase deficient cells (CHO pgs-A-745; obtained from ATCC) were maintained in Ham’s F12 medium supplemented with 10% foetal bovine serum (FBS), 2 mM L-glutamine and antibiotic (10,000 UI/mL penicillin, and 10,000 UI/mL streptomycin). […]
For cellular uptake measurement, CHO K1 and CHO pgs-A-745 were seeded in 12-well plates at a density of 30,000 cells/well for 48 h to approximately 75% confluence. […] To confirm that the fluorescence measured by flow cytometry was not associated to non-specific binding of the FITC-peptides at the cell surface, we performed the analysis after treatment with the fluorescent quencher trypan blue. […]

[3] = Heparin affinity chromatography (HiTrap Heparin HP sepharose column, NaCl gradient); assay type: binding, porcine; settings: 20 mM phosphate pH 7.4, NaCl gradient
Experimental: (A) Chromatograms of PACAP38 elution with increasing NaCl concentration on a sepharose heparin column connected to a FPLC Aktapure system.
The relative binding affinity of the peptides for sulfated GAGs was evaluated using a 1 mL HiTrap Heparin HP column packed with sepharose and immobilized heparin from porcine intestinal mucosa (GE Healthcare, Baie-d'Urfé, QC, Canada). The column was connected to a FPLC Aktapure system (GE Healthcare) and equilibrated with phosphate buffer (20 mM, pH 7.4) prior to injection. Five hundred microliters of 0.5 mg/mL peptide solutions were injected at a flow rate of 0.5 mL/min. After injection, the elution consisted of an isocratic step of 5 mL phosphate buffer (20 mM, pH 7.4) followed by a gradient from 0 to 2 M NaCl in phosphate buffer (pH 7.4). Peptide elution was monitored using absorbance at 230 nm.

[4] = Heparin clustering measured by turbidity at 400 nm, heparin-into-peptide titration; assay type: physicochemical; settings: 1.25 µL aliquots of 100 µM heparin into 1 mL 50 µM peptide, 20 mM phosphate, 100 mM NaCl, pH 7.4
Experimental: Each peak corresponds to the injection of 1.25 μL of a 100 μM heparin solution (20 mM phosphate, 100 mM NaCl, pH 7.4) into a 1 mL 50 μM peptide solution (20 mM phosphate, 100 mM NaCl, pH 7.4).
The formation of macromolecular GAG-peptide clusters was monitored by measuring the light scattering at 400 nm, as previously described [27, 28], using a 100 Bio Cary UV-visible spectrophotometer (Varian, Malton, ON, Canada). Briefly, for the heparin-into-peptide titration, a 1 cm length quartz cuvette was filled with 1 mL of a 50 μM peptide solution (20 mM phosphate buffer, 100 mM·NaCl, pH 7.4) and 1.25 μL aliquots of a 100 μM heparin solution (20 mM phosphate buffer, 100 mM·NaCl, pH 7.4) were successively added. The solution was gently mixed by vortex and the turbidity at 400 nm was immediately measured. For the peptide-into-heparin titration, a 1 cm length quartz cuvette was filled with 1 mL of a 10 μM heparin solution (20 mM phosphate buffer, 100 mM·NaCl, pH 7.4) and 12.5 μL aliquots of a 200 μM peptide solution (20 mM phosphate buffer, 100 mM·NaCl, pH 7.4) were successively added. The solution was gently mixed by vortex and the turbidity at 400 nm was immediately measured. Data was expressed as solution turbidity at 400 nm as function of peptide/heparin or heparin/peptide molar ratio.

| Sequence | NaCl concentration at which TAT is eluted from heparin column [1] | Secondary conformation of TAT upon binding to heparin [2] | Cellular uptake, fold lower compared to PACAP38 (CHO K1 cells) | Extent of internalization in CHO pgs-A-745 versus CHO K1 cells (in words) (CHO pgs-A-745 cells) | Relative binding to heparin column (in words) [3] | Turbidity at 400 nm on titration of heparin into peptide (in words) [4] |
| --- | --- | --- | --- | --- | --- | --- |
| GRKKRRQRRRPPQ [TAT(48–60), cationic peptide derived from the HIV-1 protein TAT, the control CPP used in this study] | around 1.8 M | adopts an α-helical conformation |  |  |  |  |
| CGNLSTCMLGTYTQDFNKFHTFPQTAIGVGAP [Calcitonin] |  |  | 5- to 10 fold | rather similar | bind weakly to the heparin column | absence of turbidity |
